Values quoted from earlier work, collected in patent US20170312254A1, “Low Dose Pharmaceutical Composition” (Cipla Limited, priority 2010, published 2017).

Key:
[1] = premarketing studies

- Elevations in liver transaminases, fraction of patients [1]: ⅓
- Lipid solubility: highly lipid-soluble
- Water solubility: highly water insoluble
- Solubility in lower pH (lower pH): practically insoluble
- Solubility at pH 6.8 (pH 6.8, until buffer strength is altered): insoluble
Structure (SMILES): O=C(O)c1ccc(-n2nc(-c3ccccc3O)nc2-c2ccccc2O)cc1 [Deferasirox, 4-[3,5-bis (2-hydroxyphenyl)-[1,2, 4]triazol-1-yl] enzoic acid]
